“Also recorded” adds a separate entry of the source.
Assays:
[1] = test system: LPS-stimulated spleen cells; test: TNF production by LPS-stimulated spleen cells; format: cell-based, BALB/c mice; settings: 5×10^6 cell/well, LPS 500 ng/mL, 4 hours; increasing concentrations; FIG. 7A
Protocol: (§1) In this example, differing concentrations of Paraoxon were included in various individual wells (having 5×10^6 cell/well) with a total volume of 250 microliters/well, and stimulated for 4 hours with LPS (500 ng/mL).

spleen cells = test: Viability of LPS-stimulated spleen cells; settings: concentrations of Paraoxon used in FIG. 7A; FIG. 7B
Protocol: as §1

TNF production = settings: endotoxemia; nicotine 2 mg/kg i.p. 30 minutes prior to endotoxin
Protocol: Adult male BALB/c mice 8 to 12 weeks-old (20-25 g; Taconic) and adult male Sprague Dawley rats 8 to 12 weeks-old (250-300 g, Charles River Laboratories) were housed at 25° C. on a 12-hour light/dark cycle, and let acclimatize for one week before experiments were conducted. Water and regular rodent chow were available ad libitum. Experiments were performed under protocols approved by the Institutional Animal Care and Use Committee of the Feinstein Institute for Medical Research, North Shore-LIJ Health System.
Endotoxin (LPS from E. coli, 0111:B4, Sigma-Aldrich) was injected to animals (10 mg/kg, i.p. corresponding to a LD75 dose). Blood and spleens were harvested 10, 30, 60 or 120 minutes after LPS administration. We used ELISA to determine TNF concentration in serum (R&D Systems). Spleens were either snap frozen for further immunofluorescence analysis or disrupted in PBS plus protease inhibitor cocktail (Complete mini, Roche) with a tissue homogenizer (Polytron 3100, Kinematica). TNF content in spleen tissue was determined by ELISA and normalized to protein concentration (Protein Assay, BioRad). In some experiments, PBS or nicotine (Sigma-Aldrich) was injected 30 minutes (2 mg/kg, i.p.) prior to endotoxin administration. Animals were then euthanized 60 minutes later and spleens were harvested for TNF immunofluorescence or TNF quantification in tissue homogenates.

SMILES	TNF production by LPS-stimulated spleen cells [1]	toxicity / cell viability (spleen cells)	TNF production by TNF-producing splenic macrophages (TNF production)
CCOP(=O)(OCC)Oc1ccc([N+](=O)[O-])cc1 [Paraoxon]	dose-dependent inhibition of TNF; also recorded: dose-dependently attenuated TNF levels; also recorded: the greater the inhibition of TNF	no significant toxicity; also recorded: without affecting cell viability; also recorded: no significant loss of viability	–
CN1CCCC1c1cccnc1 (stereo not drawn) [nicotine]	–	–	significantly attenuates TNF production
